Assays:
[1] = target: T1, microtubular protein (tubulin) purified from pig brains (Sus scrofa, UniProt P02550+P02554); test: Inhibition of tubulin polymerization (turbidimetry at 340 nm); format: biochemical; details: pig brain microtubular protein 1 mg/ml, 0.25 mmol GTP, 37° C.
T1 construct: microtubular protein was purified from pig brains via cyclic assembling/disassembling; from tissue; host or cells: pig brain
Description: The in-vitro testing of the tubulin polymerization influence was performed as follows:
The buffer system used had the following composition: 20 mmol of PIPES (1,4-piperazine-diethane-sulfonic acid, pKa 6.8), 80 mmol of NaCl, 0.5 mmol of MgCl2, 1 mmol of EGTA (ethylene glycol-bis-(2-aminoethylene)-tetraacetic acid).
For active ingredient testing, protein concentrations of 1 mg/ml (about 10^−5 mmol of tubulin) were used. […] The assembling of microtubuli was carried out in the presence of 0.25 mmol of GTP and heating the samples to 37° C.
The microtubulus formation was examined by means of turbidimetry at a wavelength of 340 nm.
Testing of the active ingredients was carried out by their addition at the beginning of the assembling or in the state of equilibrium. Deviations of turbidity curves from the control characterize its activity. To monitor action and to evaluate the measured turbidity values, a transmission electron microscopic study (CEM 902 A, Zeiss/Oberkochen) of the assemblates was always performed after negative staining with 1% aqueous uranyl acetate.

[2] = system: HMVEC human primary dermal microvascular endothelial cells; test: Inhibition of cell proliferation, crystal violet staining; format: cell-based; details: 4 days incubation
Description: (§1) Cell cultures of the following cell lines were prepared in 96-well microtiter plates: • 1. MaTu/ADR multidrug-resistant human breast tumor cells (Epo GmbH Berlin), 5000 cells/well. • 2. HCT116 human colon tumor cells (ATCC CCL-247), 3000 cells/well. • 3. NCl-H460 human non-small-cell lung cancer cells (ATCC HTB-177), 3000 cells/well. • 4. DU145 human prostate tumor cells (ATCC HTB-81), 5000 cells/well. • 5. HMVEC human primary dermal microvascular endothelial cells, 7500 cells/well.
(§2) After 24 hours of incubation in a cell culture incubator at 37° C., the cells of a microtiter plate were stained with crystal violet (reference plate), while the cells in the test plates were incubated for 4 days with the test substances in the concentrations […], as well as with the DMSO solvent by itself (solvent control). The cell proliferation was determined by staining cells with crystal violet. The extinction of the crystal violet was determined by photometry at 595 nm. The percentage of the change in the cell number in the test plates was determined after the extinction values were normalized to the reference plate (0%) and to the solvent control (100%). The semi-maximal inhibition of the cell growth (IC50) was determined as the substance concentration, in which 50% of the cell number of the solvent controls were present.

[3] = system: HCT116 human colon tumor cells; test: as above; format: cell-based; details: HCT116, 4 days incubation
Description: as §1, §2

[4] = system: DU145 human prostate tumor cells; test: as above; format: cell-based; details: DU145, 4 days incubation
Description: as §1, §2

[5] = system: NCl-H460 human non-small-cell lung cancer cells; test: as above; format: cell-based; details: NCl-H460, 4 days incubation
Description: as §1, §2

[6] = system: MaTu/ADR multidrug-resistant human breast tumor cells; test: as above; format: cell-based; details: 4 days incubation
Description: as §1, §2

T1 sequence (P02550 whole entry): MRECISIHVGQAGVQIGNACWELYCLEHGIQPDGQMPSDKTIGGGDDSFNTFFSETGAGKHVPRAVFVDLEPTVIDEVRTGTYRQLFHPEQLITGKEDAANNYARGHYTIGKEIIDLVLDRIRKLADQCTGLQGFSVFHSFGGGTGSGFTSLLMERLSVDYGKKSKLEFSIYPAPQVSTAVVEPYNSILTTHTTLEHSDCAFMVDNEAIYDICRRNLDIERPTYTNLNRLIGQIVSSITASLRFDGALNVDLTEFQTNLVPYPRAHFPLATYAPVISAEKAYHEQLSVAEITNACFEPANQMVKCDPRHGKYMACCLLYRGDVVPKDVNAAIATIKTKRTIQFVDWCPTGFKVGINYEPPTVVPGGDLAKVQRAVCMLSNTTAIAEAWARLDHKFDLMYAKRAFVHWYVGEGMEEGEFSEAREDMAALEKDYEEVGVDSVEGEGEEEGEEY
T1 sequence (P02554 whole entry): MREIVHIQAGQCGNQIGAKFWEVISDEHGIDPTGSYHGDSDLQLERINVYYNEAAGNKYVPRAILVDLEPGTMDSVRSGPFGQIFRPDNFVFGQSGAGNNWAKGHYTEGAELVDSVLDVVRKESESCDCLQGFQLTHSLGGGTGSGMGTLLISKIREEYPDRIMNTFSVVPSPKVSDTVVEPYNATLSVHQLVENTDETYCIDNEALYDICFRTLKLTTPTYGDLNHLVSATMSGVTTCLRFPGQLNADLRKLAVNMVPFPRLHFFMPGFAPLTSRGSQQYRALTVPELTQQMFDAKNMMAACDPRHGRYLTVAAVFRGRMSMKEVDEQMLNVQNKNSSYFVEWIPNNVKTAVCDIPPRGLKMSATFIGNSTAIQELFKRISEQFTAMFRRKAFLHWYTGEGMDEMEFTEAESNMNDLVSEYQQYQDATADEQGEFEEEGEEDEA

Row | IC50 [3] | IC50 [4] | IC50 [5] | IC50 [6] | SMILES | IC50 [1] | IC50 ([2]; Homo sapiens, 96 h) | IC50 ([3]; Homo sapiens, HCT-116, 96 h) | IC50 ([4]; Homo sapiens, DU-145, 96 h) | IC50 ([5]; Homo sapiens, 96 h) | IC50 ([6]; Homo sapiens, 96 h) | IC50 [2]
1 | – | – | – | – | COc1cc2c(cc1OS(N)(=O)=O)CC[C@@H]1[C@@H]2CC[C@]2(C)[C@@H](C)CC[C@@H]12 [(5), 2-methoxy-17β-methyl-estra-1,3,5(10)-trien-3-yl sulfamate] | 1300 nM | – | – | – | – | – | –
2 | – | – | – | – | COc1cc2c(cc1OS(N)(=O)=O)CC[C@@H]1[C@@H]2CC[C@]2(C)C(=C(F)F)CC[C@@H]12 [(8), 17(20)-Difluoromethylene-2-methoxy-estra-1,3,5(10)-trien-3-yl Sulfamate] | 1100 nM | 200 nM | 300 nM | 500 nM | 220 nM | 170 nM | –
3 | – | – | – | – | COc1cc2c(cc1OS(N)(=O)=O)CC[C@@H]1[C@@H]2CC[C@]2(C)CCC[C@@H]12 [(1), 2-Methoxy-estra-1,3,5(10)-trien-3-yl Sulfamate] | 670 nM | < 100 nM | 400 nM | 500 nM | 400 nM | 110 nM | –
4 | – | – | – | – | CCc1cc2c(cc1OS(N)(=O)=O)CC[C@@H]1[C@@H]2CC[C@]2(C)[C@@H](OC)CC[C@@H]12 [(3), 2-Ethyl-17β-methoxy-estra-1,3,5(10)-trien-3-yl sulfamate] | 1400 nM | 160 nM | 180 nM | 180 nM | 180 nM | 120 nM | –
5 | – | – | – | – | COc1cc2c(cc1OS(N)(=O)=O)CC[C@@H]1[C@@H]2CC[C@]2(C)[C@@H](C(F)F)CC[C@@H]12 [(9), 17β-Difluoromethyl-2-methoxy-estra-1,3,5(10)-trien-3-yl Sulfamate] | 1500 nM | 200 nM | 300 nM | 400 nM | 220 nM | 110 nM | –
6 | – | – | – | – | C=C1CC[C@H]2[C@@H]3CCc4cc(OS(N)(=O)=O)c(OC)cc4[C@H]3CC[C@]12C [(4), 2-Methoxy-17(20)-methylene-estra-1,3,5(10)-trien-3-yl Sulfamate] | 1400 nM | 160 nM | 180 nM | 180 nM | 180 nM | < 100 nM | –
7 | 500 nM | 550 nM | 500 nM | 130 nM | C=C1CC[C@H]2[C@@H]3CC(=NO)c4cc(OS(N)(=O)=O)c(OC)cc4[C@H]3CC[C@]12C [(7), 2-Methoxy-17(20)-methylene-6-oximino-estra-1,3,5(10)-trien-3-yl Sulfamate] | – | – | – | – | – | – | 130 nM
8 | – | – | – | – | CC(=O)O[C@H]1C(=O)[C@@]2(C)[C@H]([C@H](OC(=O)c3ccccc3)[C@]3(O)C[C@H](OC(=O)[C@H](O)[C@@H](NC(=O)c4ccccc4)c4ccccc4)C(C)=C1C3(C)C)[C@]1(OC(C)=O)CO[C@@H]1C[C@@H]2O [Taxol, reference compound] | – | 4 nM | 4 nM | 4 nM | 4 nM | 400 nM | –
9 | – | – | – | – | COc1cc2c(cc1OS(N)(=O)=O)CC[C@@H]1[C@@H]2CC[C@]2(C)[C@@H](CO)CC[C@@H]12 [(11), 17β-Hydroxymethyl-2-methoxy-estra-1,3,5(10)-trien-3-yl Sulfamate] | – | < 100 nM | 180 nM | 200 nM | 180 nM | < 100 nM | –
10 | 1100 nM | 1900 nM | 1800 nM | 200 nM | COc1cc2c(cc1O)CC[C@@H]1[C@@H]2CC[C@]2(C)[C@@H](O)CC[C@@H]12 [2-Methoxyestradiol, reference compound] | 2700 nM | – | – | – | – | – | 2200 nM
